Experimental data published in US20240315963A1, “COMPOSITIONS AND METHODS FOR EXTENDED DELIVERY OF API TO TREAT DISEASES OF THE EYE” (priority 2023, published 2024).

Assay: API elution study from the gel, buffer replaced daily, HPLC
Format: physicochemical
Conditions: 50 mg API in 4-Arm PEG-10K-SG/4-arm-PEG-10K-SAS/4-arm PEG-20K-NH2 gel; 37° C., 2 ml 7.4 buffer replaced daily
Experimental: A mold piece manufactured per example 5 is placed in a 2 ml buffered saline at 37° C. water bath. The entire 2 ml saline is removed daily from the sample and a new 2 ml saline is added. The process is repeated daily till the device is completely dissolved. The saline sample with drug is analyzed by HPLC, GC to establish the elution rate.
Example 22. Powder mixtures of 4-Arm PEG-10K-SG (12.5 mg) and 4-arm-PEG-10K-SAS (12.5±0.5 mg), 4-arm PEG-20K-NH 2 (25±0.5 mg) were placed in a 10 ml syringe. To this powder was added 50 mg corticosteroid TMC.

SMILES: C[C@]12C=CC(=O)C=C1CC[C@H]1[C@@H]3C[C@@H](O)[C@](O)(C(=O)CO)[C@@]3(C)C[C@H](O)[C@@]12F [TMC]
- amount eluted each day: about 54 micro grams
